This is an account of results in ChEMBL document CHEMBL1144271, “Carbonic anhydrase inhibitors: synthesis and inhibition of cytosolic/tumor-associated carbonic anhydrase isozymes I, II, and IX with bis-sulfamates” (Bioorg Med Chem Lett, 2005).

One assay has as its target Carbonic anhydrase 9 (Homo sapiens, UniProt Q16790).
Another assay deals with Carbonic anhydrase 1 (Homo sapiens, UniProt P00915).
Carbonic anhydrase 1, sequence (P00915 whole entry): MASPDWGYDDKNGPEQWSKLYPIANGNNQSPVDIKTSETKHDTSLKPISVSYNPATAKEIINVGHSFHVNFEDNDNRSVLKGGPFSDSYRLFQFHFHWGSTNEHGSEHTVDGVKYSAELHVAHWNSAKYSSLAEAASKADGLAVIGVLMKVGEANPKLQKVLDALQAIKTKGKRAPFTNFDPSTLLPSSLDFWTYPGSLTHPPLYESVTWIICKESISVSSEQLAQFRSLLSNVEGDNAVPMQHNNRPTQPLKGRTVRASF

Take `NS(=O)(=O)OCCCCCCCOS(N)(=O)=O`: the affinity on Carbonic anhydrase 9 corresponds to a Ki of 10.1 nM. `C[C@]12CC[C@@H]3c4ccc(OS(N)(=O)=O)cc4CC[C@H]3[C@@H]1CC[C@@H]2OS(N)(=O)=O`: the Ki on Carbonic anhydrase 1 came out at 6000 nM. On to `NS(=O)(=O)OCc1ccc(COS(N)(=O)=O)cc1`, for which the Ki on Carbonic anhydrase 9 is 61.6 nM; on Carbonic anhydrase 1, above 20 nM.
